Structures can show the parent of a compound that is named as a salt.
Biological target: T1, human GHS-R1a (Homo sapiens, UniProt Q92847)
T1 construct: expressed in transfected cells
Assay: Agonistic activity by use of a cell line stably expressing human GHS-R1a (intracellular calcium increase)
Format: cell-based
Conditions: hGHS-R1a/CHO cells, percent increase in intracellular calcium vs 100 nM ghrelin; read-out: GHS-R agonistic activity (EC50: nM)
Experimental: CHO-K1 cells were transfected with human GHS-R1a genes, to thereby provide cells stably expressing GHS-R1a (hGHS-R1a/CHO), and the agonistic activity of each compound was evaluated by use of the cells based on percent increase in intracellular calcium as an index.
The hGHS-R1a/CHO cells were inoculated at 6×10^4 cells/well in a 96-well plate (Clear bottom/Black plate, product of Corning), and cultured in Ham's F12 medium containing 10% fetal bovine serum at 37° C. and 5% CO2 for 18 hours. After culture, the medium was removed, and then the hGHS-R1a/CHO cells were cultured for two hours in a Hanks' balanced salt solution/HEPES (HBSS/HEPES, 100 μL) containing a calcium fluorescent indicator (4 μM Fluo-3AM, product of Dojin), 2 mM Probenecid, 0.1% Pluronic F-127, and 0.1% BSA, whereby the indicator was incorporated into the cells. After washing the cells, HBSS/HEPES (175 μL/well) containing 2 mM Probenecid and 0.1% BSA was added to the plate, and the fluorescence before and after addition of each test compound was determined by means of FLEXstation (Ex: 485 nm, Em: 525 nm, product of Molecular Devices). Each test compound was multi-fold diluted with dimethyl sulfoxide and then diluted with HBSS/HEPES containing 2 mM Probenecid, 0.04% Pluronic F-127, and 0.1% BSA, to thereby attain a final concentration of interest. The thus-diluted solution (25 μL/well) was added to the wells.
Agonistic activity(%)=(A−B)/(C−D)×100
A: Fluorescence intensity after addition of test compound
B: Fluorescence intensity before addition of test compound
C: Fluorescence intensity after addition of 100 nM ghrelin
D: Fluorescence intensity before addition of ghrelin

T1 sequence (Q92847 whole entry): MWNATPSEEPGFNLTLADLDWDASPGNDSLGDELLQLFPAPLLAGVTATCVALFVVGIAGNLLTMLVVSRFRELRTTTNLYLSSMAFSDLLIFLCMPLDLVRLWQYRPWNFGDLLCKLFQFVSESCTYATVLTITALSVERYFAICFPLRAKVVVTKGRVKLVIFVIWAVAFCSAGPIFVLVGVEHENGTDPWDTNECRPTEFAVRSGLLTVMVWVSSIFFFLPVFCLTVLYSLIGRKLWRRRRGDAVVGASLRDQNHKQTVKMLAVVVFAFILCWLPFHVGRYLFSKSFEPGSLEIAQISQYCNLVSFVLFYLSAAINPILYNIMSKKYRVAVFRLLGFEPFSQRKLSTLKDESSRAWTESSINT

Row | EC50 [nM] | SMILES
1 | 0.2 | CC[C@@](C)(N)C(=O)N[C@H](Cc1cn(C)c2ccccc12)C(=O)NC1Cc2cccc(N3CCCC3=O)c2N(Cc2ccsc2)C1=O (stereo partly drawn) [Example 34i, (2R)-2-amino-2-methyl-N-[(2R)-3-(1-methyl-1H-indol-3-yl)-1-oxo-1-[2-oxo-8-(2-oxopyrrolidin-1-yl)-1-(thiophen-3-ylmethyl)-1,2,3,4-tetrahydroquinolin-3-ylamino]propan-2-yl]butanamide hydrochloride]
2 | 0.07 | CCCn1cc(C[C@@H](NC(=O)C(C)(C)N)C(=O)NC2Cc3cccc(N4CCCC4=O)c3N(Cc3ccsc3)C2=O)c2ccccc21 (stereo partly drawn) [Example 34e, 2-amino-2-methyl-N-[(2R)-1-oxo-1-[2-oxo-8-(2-oxopyrrolidin-1-yl)-1-(thiophen-3-ylmethyl)-1,2,3,4-tetrahydroquinolin-3-ylamino]-3-(1-propyl-1H-indol-3-yl)propan-2-yl]propanamide hydrochloride]
3 | 2.75 | CC(C)C[C@@H](NC(=O)[C@@H](C)N)C(=O)NC1Cc2cccc(N3CCCC3=O)c2N(Cc2ccsc2)C1=O (stereo partly drawn) [Example 34g, (2R)-2-((R)-2-aminopropanamido)-4-methyl-N-[2-oxo-8-(2-oxopyrrolidin-1-yl)-1-(thiophen-3-ylmethyl)-1,2,3,4-tetrahydroquinolin-3-yl]pentanamide hydrochloride]
4 | 0.22 | CC(C)(N)C(=O)N[C@H](Cc1cn(CCF)c2ccccc12)C(=O)NC1Cc2cccc(N3CCCC3=O)c2N(Cc2ccsc2)C1=O (stereo partly drawn) [Example 34d, 2-amino-N-[(2R)-3-[1-(2-fluoroethyl)-1H-indol-3-yl]-1-oxo-1-[2-oxo-8-(2-oxopyrrolidin-1-yl)-1-(thiophen-3-ylmethyl)-1,2,3,4-tetrahydroquinolin-3-ylamino]propan-2-yl]-2-methylpropanamide hydrochloride]
5 | 0.74 | CC[C@@](C)(N)C(=O)N[C@H](CC(C)C)C(=O)NC1Cc2cccc(N3CCCC3=O)c2N(Cc2ccsc2)C1=O (stereo partly drawn) [Example 34h, (2R)-2-((R)-2-amino-2-methylbutanamido)-4-methyl-N-[2-oxo-8-(2-oxopyrrolidin-1-yl)-1-(thiophen-3-ylmethyl)-1,2,3,4-tetrahydroquinolin-3-yl]pentanamide hydrochloride]
6 | 1.13 | CC(C)n1cc(C[C@@H](NC(=O)C(C)(C)N)C(=O)NC2Cc3cccc(N4CCCC4=O)c3N(Cc3ccsc3)C2=O)c2ccccc21 (stereo partly drawn) [Example 34f, 2-amino-N-[(2R)-3-(1-isopropyl-1H-indol-3-yl)-1-oxo-1-[2-oxo-8-(2-oxopyrrolidin-1-yl)-1-(thiophen-3-ylmethyl)-1,2,3,4-tetrahydroquinolin-3-ylamino]propan-2-yl]-2-methylpropanamide hydrochloride]
7 | 0.052 | Cn1cc(C[C@@H](NC(=O)C(C)(C)N)C(=O)NC2Cc3cccc(N4CCCC4=O)c3N(Cc3ccsc3)C2=O)c2ccccc21 (stereo partly drawn) [Example 34b, 2-amino-2-methyl-N-[(2R)-3-(1-methyl-1H-indol-3-yl)-1-oxo-1-[2-oxo-8-(2-oxopyrrolidin-1-yl)-1-(thiophen-3-ylmethyl)-1,2,3,4-tetrahydroquinolin-3-ylamino]propan-2-yl]propanamide hydrochloride]

Continued, compound first:

Row | SMILES | EC50 [nM]
8 | CCN(CC)c1cccc2c1N(Cc1ccccn1)C(=O)C(NC(=O)[C@@H](CC(C)C)NC(=O)[C@H](N)Cc1ccc(O)cc1)C2 (stereo partly drawn) [Example 39, (2R)-2-((R)-2-Amino-3-(4-hydroxyphenyl)propanamido)-N-(8-(diethylamino)-2-oxo-1-(pyridin-2-ylmethyl)-1,2,3,4-tetrahydroquinolin-3-yl)-4-methylpentanamide hydrochloride] | 12.9
9 | CC(C)C[C@@H](NC(=O)C(C)(C)N)C(=O)NC1Cc2cccc(N3C(=O)CCC3O)c2N(Cc2ccsc2)C1=O (stereo partly drawn) [Example 66, (2R)-2-(2-amino-2-methylpropanamido)-N-(8-(2-hydroxy-5-oxopyrrolidin-1-yl)-2-oxo-1-(thiophen-3-ylmethyl)-1,2,3,4-tetrahydroquinolin-3-yl)-4-methylpentanamide] | 0.45
10 | CC(C)C[C@@H](NC(=O)C(C)(C)N)C(=O)NC1Cc2cccc(N3C(=O)CCC3=O)c2N(Cc2ccccc2)C1=O (stereo partly drawn) [Example 37, (2R)-2-(2-Amino-2-methylpropanamido)-N-[1-benzyl-8-(2,5-dioxopyrrolidin-1-yl)-2-oxo-1,2,3,4-tetrahydroquinolin-3-yl]-4-methylpentanamide hydrochloride] | 1
11 | CC(C)C[C@@H](NC(=O)C(C)(C)N)C(=O)NC1Cc2cccc(N3CCCC3=O)c2N(Cc2ccsc2)C1=O (stereo partly drawn) [Example 34k, (2R)-2-(2-amino-2-methylpropanamido)-4-methyl-N-[2-oxo-8-(2-oxopyrrolidin-1-yl)-1-(thiophen-3-ylmethyl)-1,2,3,4-tetrahydroquinolin-3-yl]pentanamide(R)-(−)-mandelate] | 0.47
12 | CN(C)c1cccc2c1N(Cc1ccccn1)C(=O)C(NC(=O)[C@H](NC(=O)C(C)(C)N)c1ccccc1)C2 (stereo partly drawn) [Example 41, 2-Amino-N-((1R)-2-(8-(dimethylamino)-2-oxo-1-(pyridin-2-ylmethyl)-1,2,3,4-tetrahydroquinolin-3-ylamino)-2-oxo-1-phenylethyl)-2-methylpropanamide hydrochloride] | 11.3
13 | CC(C)C[C@@H](NC(=O)C(C)(C)N)C(=O)NC1Cc2cccc(N3CCCCC3=O)c2N(Cc2ccccc2)C1=O (stereo partly drawn) [Example 36, (2R)-2-(2-Amino-2-methylpropanamido)-N-[1-benzyl-2-oxo-8-(2-oxopiperidin-1-yl)-1,2,3,4-tetrahydroquinolin-3-yl]-4-methylpentanamide hydrochloride] | 1.1
14 | CC(C)C[C@@H](NC(=O)C(C)(C)N)C(=O)NC1Cc2ccccc2N(Cc2ccccc2)C1=O (stereo partly drawn) [Comp. Ex. 1, (2R)-2-(2-Amino-2-methylpropanamido)-N-(1-benzyl-2-oxo-1,2,3,4-tetrahydroquinolin-3-yl)-4-methylpentanamide hydrochloride, reference compound] | 149
15 | CC(C)(N)C(=O)N[C@H](Cc1c[nH]c2ccccc12)C(=O)NC1Cc2cccc(N3CCCC3=O)c2N(Cc2ccsc2)C1=O (stereo partly drawn) [Example 25l, N-[(2R)-3-(1H-indol-3-yl)-1-oxo-1-[2-oxo-8-(2-oxopyrrolidin-1-yl)-1-(thiophen-3-ylmethyl)-1,2,3,4-tetrahydroquinolin-3-ylamino]propan-2-yl]-2-amino-2-methylpropanamide] | < 0.1
16 | CC(C)C[C@@H](NC(=O)[C@H](C)N)C(=O)NC1Cc2cccc(N3CCCC3=O)c2N(Cc2ccsc2)C1=O (stereo partly drawn) [Example 25h, (2R)-2-((S)-2-aminopropanamido)-4-methyl-N-[2-oxo-8-(2-oxopyrrolidin-1-yl)-1-(thiophen-3-ylmethyl)-1,2,3,4-tetrahydroquinolin-3-yl]pentanamide] | 6.13
17 | CC(=O)Nc1cccc2c1N(Cc1ccccn1)C(=O)C(NC(=O)[C@@H](CC(C)C)NC(=O)C(C)(C)N)C2 (stereo partly drawn) [Example 40, (2R)—N-(8-Acetamido-2-oxo-1-(pyridin-2-ylmethyl)-1,2,3,4-tetrahydroquinolin-3-yl)-2-(2-amino-2-methylpropanamido)-4-methylpentanamide] | 80
18 | CC(C)C[C@@H](NC(=O)C(C)(C)N)C(=O)NC1Cc2cccc(N3CCCC3=O)c2N(Cc2ccccc2)C1=O (stereo partly drawn) [Example 35, (2R)-2-(2-Amino-2-methylpropanamido)-N-[1-benzyl-2-oxo-8-(2-oxopyrrolidin-1-yl)-1,2,3,4-tetrahydroquinolin-3-yl]-4-methylpentanamide hydrochloride] | 0.9

Source: patent US8501772B2, “3,8-diaminotetrahydroquinoline derivative” (Zeria Pharmaceutical Co., Ltd., priority 2008, dated 2013)
